Patent publication US20120028265A1, “METHODS OF USING RET NANOSENSORS” (priority 2007, published 2012)

Experiments:
[1] = molecular target: FLIParaF.Ec-200n, FRET nanosensor: E. coli K12 AraF (L-arabinose binding protein) fused between eCFP and Venus (Escherichia coli, UniProt P02924); assay: In vitro FRET titration of purified arabinose nanosensor; details: D/L-arabinose; apparent; purified sensor, 20 mM MOPS pH 7.0, Venus/eCFP emission ratio 528/485 nm, single-site isotherm
Text: The araF gene (EMBL: K00420) was amplified from Escherichia coli K12 genomic DNA using homologous primers, resulting in a PCR product that consisted of araF without stopcodon flanked by phage lambda attB recombination sites. The araF gene was fused between eCFP and Venus coding sequences of pGW1 through pDONR (Invitrogen) using […] (Invitrogen), respectively. The final construct was denoted pGW1araF.Ec and the correct sequence of the araF gene was verified by DNA sequencing (Sequetech). The gene product encoded on pGW1araF.Ec was denoted FLIParaF.Ec-200n.
The eCFP emission used for the ratio calculation was determined at 485 nm. Protein was diluted to give Venus/eYFP readouts of 20,000 to 30,000 at a manual gain between 70-75. By using the change in FRET ratio upon binding of ligand, affinity constants (Kd) were determined by fitting the titration curves to a single-site-binding isotherm:
R=Rapo+(Rsat−Rapo)·(n·[L])/(Kd+[L])
with [L], ligand concentration; n, number of equal binding sites; R, ratio; Rapo, ratio in the absence of ligand; and Rsat, ratio at saturation with ligand. Three independent protein preparations were analyzed and each protein preparation was analyzed in triplicate.

[2] = system: E. coli L-arabinose binding protein AraF, unmodified; details: tryptophan fluorescence spectroscopy, read-out: affinity (Kd); cited from earlier work
[3] = molecular target: FLII12Pglu700μ-δ6 glucose nanosensor (Escherichia coli, UniProt P0AEE5); format: binding; details: read-out: Kd, affinity constant of nanosensor; used for theoretical saturation curve
Description: (A) Theoretical curve of glucose-induced FRET changes of FLII12Pglu700μ-δ6. […] Light gray shaded area indicates 10-90% confidence range of FLII12Pglu700μ-δ6 detection range, the dark gray shaded area indicates 20-80% confidence range. (B) Effect of the variation in ratio data (SD) on the determination of glucose concentrations. […] The calculated glucose concentration from the average of ratio data was set as 100%. In vivo glucose concentration was calculated from the equation: [gluc]vivo=Kd×(Δr−1)/(ΔRmax−Δr) with [G], glucose concentration; Kd, affinity constant of nanosenor; Δr, partial ratio change; ΔRmax, maximum ratio change. (C) Examples of in vivo glucose concentration dynamics upon cell perfusion and nanosenor range of FLII12Pglu700μ-δ6. The glucose concentration dynamics within the nanosenor range report differences in 1) accumulation rate, 2) elimination rate, 3) steady-state level, and 4) delay in nanosenor response. Gray lines indicate real in vivo glucose concentration dynamics and black lines indicate the nanosenor saturation of FLII12Pglu700μ-δ6. (D) In vivo glucose concentration-time plot (black line) with ratio ±SD and confidence range (grey lines) of FLII12Pglu700μ-δ6.

[4] = molecular target: glucose nanosensor (not named in Example 9); details: read-out: affinity constant for glucose
Description: The confidence range for calculation of intracellular glucose concentrations is determined by the quality of the recorded sensor response data. As a rule of thumb, data with standard deviations off ±2.5% and ±5% can be interpreted between 10% and 90% and between 20% and 80% saturation, respectively. Monitoring the sensor response in presence of alternating analyte concentrations yields information about transport and metabolism in the targeted subcellular compartment from (1) the intracellular accumulation rate upon addition of the analyte, which is composed of influx rate minus metabolism and export rates, (2) the elimination rate when the analyte is removed, which is composed of export plus metabolism minus influx, (3) the steady state level of the sensor response, in which influx equals metabolism and efflux, and (4) the time delay before a sensor response can be recorded, which represents differences in influx rates or metabolism.

FLIParaF.Ec-200n, FRET nanosensor: E. coli K12 AraF (L-arabinose binding protein) fused between eCFP and Venus, sequence (P02924 24-329): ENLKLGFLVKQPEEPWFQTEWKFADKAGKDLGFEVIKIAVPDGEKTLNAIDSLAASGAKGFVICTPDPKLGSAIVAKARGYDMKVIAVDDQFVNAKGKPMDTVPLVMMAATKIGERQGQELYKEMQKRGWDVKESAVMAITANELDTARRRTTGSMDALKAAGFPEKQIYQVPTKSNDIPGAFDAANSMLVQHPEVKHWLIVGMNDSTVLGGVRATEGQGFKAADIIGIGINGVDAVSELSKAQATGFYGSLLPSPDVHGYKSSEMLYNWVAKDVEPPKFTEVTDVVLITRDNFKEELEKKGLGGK
FLII12Pglu700μ-δ6 glucose nanosensor, sequence (P0AEE5 24-332 limits assumed): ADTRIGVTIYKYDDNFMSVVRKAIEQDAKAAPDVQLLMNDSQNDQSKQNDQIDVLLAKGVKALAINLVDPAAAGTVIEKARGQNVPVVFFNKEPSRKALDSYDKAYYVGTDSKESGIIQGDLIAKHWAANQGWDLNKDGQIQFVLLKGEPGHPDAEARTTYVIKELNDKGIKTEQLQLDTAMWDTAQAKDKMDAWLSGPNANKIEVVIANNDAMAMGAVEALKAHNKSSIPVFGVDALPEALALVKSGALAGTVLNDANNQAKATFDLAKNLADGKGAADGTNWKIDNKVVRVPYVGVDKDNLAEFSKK

OC1COC(O)C(O)C1O (racemic) [D/L-arabinose]
Kd [1]: 0.23 ± 0.018 µM

OC1OC[C@H](O)[C@H](O)[C@H]1O (stereo partly drawn) [L-arabinose]
Kd [2]: 0.098 ± 0.033 µM

OC[C@H]1OC(O)[C@H](O)[C@@H](O)[C@@H]1O (stereo partly shown) [glucose]
Kd [3]: 660 µM
Kd [4]: 600 µM
